Columns and labels:
mouse TA myofibrils = assay: Myofibril ATPase, mouse TA; format: biochemical; settings: mixed IIa, IIx, IIb
[1] = system: slow skeletal rat soleus fibers; assay: Skinned fiber force, rat soleus; settings: 100% type I, EDG-5506
Experimental: Measurement of isometric force in skinned fibers from rabbit psoas, rat soleus, and rat cardiac trabeculae were performed as described previously ([65]) with an 802D fiber system (Aurora Scientific). Muscle bundles were thawed from –80°C and placed in relaxing solution. Single fibers were transferred to the testing apparatus with steel pins connected to a force transducer and motor (model 403A and 322C, Aurora Scientific), and collodion glue was applied. Temperature was set to 15°C for skeletal fibers and 30°C for rat cardiac trabeculae. The wells of the 802D were filled with different ratios of relaxing and activating pCa solutions as detailed previously ([65]). All control solutions contained 1% final DMSO. Traces were compared between control and compound runs to evaluate isometric force and calcium sensitivity.

mdx EDL muscle = assay: Procion orange dye uptake after eccentric contraction; set-up: species or system mouse
Experimental: For procion imaging, injury protocols were performed in 1% procion MX Dye (020 Brilliant Orange, Jacquard Products) and fixed in cold 4% paraformaldehyde and then cold 30% sucrose/PBS before cryosection. Laminin immunohistochemistry used rabbit polyclonal (L9393, Sigma-Aldrich, 1:20) and chicken anti-rabbit Alexa Fluor 488 (Invitrogen, 1:500). Slides were scanned at ×20 with Nikon Te-2000 dark-field microscopy and analyzed with Imaris software (Bitplane AG). Imaris’ surface component algorithm was used to detect procion-labeled fiber boundaries. Nonspecific procion staining of the peripheral tendon and outer layer of cells (where handling could cause injury) was excluded by applying a size and location filter (>2× average fiber size and located adjacent to laminin-positive fibers at the edge of the muscle). Each fiber was identified with an ID and color coded before calculation.

mdx mice = assay: Evans blue dye muscle uptake; format: in vivo, mouse; settings: three-week treatment, nonexercised
Experimental: Prior to in vivo assessments, mice were dosed PO after a 2-hour fast with 10 mL/Kg suspensions. Grip strength and rotarod assessments were performed masked, 4 hours after dosing using published protocols ([66], [67]). Grip strength was performed with a Columbus Instruments Rodent Force Meter. Forepaw strength represented the average of 5 trials with 30-second rest periods, normalized by BW. Rotarod endurance was performed with a Columbus Instruments RotaMax. Mice were placed on the device drum at 1 rpm, which accelerated 1 rpm every 3 seconds to 12 rpm and a maximal time of 500 seconds. This was repeated 3 times with a 3-minute rest and total time reported. Voluntary wheel running performance was assessed with a customized system. Timestamped RPMs were measured 24 hours per day by infrared sensors, and a custom software calculated distance. Whole-body EBD was visualized after intravenous administration ([35]). EBD in PBS at 10 mg/mL was sterile filtered, and 50 μL/10 g BW was injected via tail vein. After 24 hours, animals were sacrificed, skin was removed and fixed in 4% formalin for 24 hours, and photographed using a Leica/Lumix camera.

ALK = target: T1, ALK (Homo sapiens, UniProt Q9UM73); assay: KINOMEscan scanEDGE; format: binding; settings: 20 uM
T1 construct: purchased Eurofins DiscoverX (KINOMEscan; SAFETYscan E/IC50 ELECT)
T1 sequence (Q9UM73 19-1620): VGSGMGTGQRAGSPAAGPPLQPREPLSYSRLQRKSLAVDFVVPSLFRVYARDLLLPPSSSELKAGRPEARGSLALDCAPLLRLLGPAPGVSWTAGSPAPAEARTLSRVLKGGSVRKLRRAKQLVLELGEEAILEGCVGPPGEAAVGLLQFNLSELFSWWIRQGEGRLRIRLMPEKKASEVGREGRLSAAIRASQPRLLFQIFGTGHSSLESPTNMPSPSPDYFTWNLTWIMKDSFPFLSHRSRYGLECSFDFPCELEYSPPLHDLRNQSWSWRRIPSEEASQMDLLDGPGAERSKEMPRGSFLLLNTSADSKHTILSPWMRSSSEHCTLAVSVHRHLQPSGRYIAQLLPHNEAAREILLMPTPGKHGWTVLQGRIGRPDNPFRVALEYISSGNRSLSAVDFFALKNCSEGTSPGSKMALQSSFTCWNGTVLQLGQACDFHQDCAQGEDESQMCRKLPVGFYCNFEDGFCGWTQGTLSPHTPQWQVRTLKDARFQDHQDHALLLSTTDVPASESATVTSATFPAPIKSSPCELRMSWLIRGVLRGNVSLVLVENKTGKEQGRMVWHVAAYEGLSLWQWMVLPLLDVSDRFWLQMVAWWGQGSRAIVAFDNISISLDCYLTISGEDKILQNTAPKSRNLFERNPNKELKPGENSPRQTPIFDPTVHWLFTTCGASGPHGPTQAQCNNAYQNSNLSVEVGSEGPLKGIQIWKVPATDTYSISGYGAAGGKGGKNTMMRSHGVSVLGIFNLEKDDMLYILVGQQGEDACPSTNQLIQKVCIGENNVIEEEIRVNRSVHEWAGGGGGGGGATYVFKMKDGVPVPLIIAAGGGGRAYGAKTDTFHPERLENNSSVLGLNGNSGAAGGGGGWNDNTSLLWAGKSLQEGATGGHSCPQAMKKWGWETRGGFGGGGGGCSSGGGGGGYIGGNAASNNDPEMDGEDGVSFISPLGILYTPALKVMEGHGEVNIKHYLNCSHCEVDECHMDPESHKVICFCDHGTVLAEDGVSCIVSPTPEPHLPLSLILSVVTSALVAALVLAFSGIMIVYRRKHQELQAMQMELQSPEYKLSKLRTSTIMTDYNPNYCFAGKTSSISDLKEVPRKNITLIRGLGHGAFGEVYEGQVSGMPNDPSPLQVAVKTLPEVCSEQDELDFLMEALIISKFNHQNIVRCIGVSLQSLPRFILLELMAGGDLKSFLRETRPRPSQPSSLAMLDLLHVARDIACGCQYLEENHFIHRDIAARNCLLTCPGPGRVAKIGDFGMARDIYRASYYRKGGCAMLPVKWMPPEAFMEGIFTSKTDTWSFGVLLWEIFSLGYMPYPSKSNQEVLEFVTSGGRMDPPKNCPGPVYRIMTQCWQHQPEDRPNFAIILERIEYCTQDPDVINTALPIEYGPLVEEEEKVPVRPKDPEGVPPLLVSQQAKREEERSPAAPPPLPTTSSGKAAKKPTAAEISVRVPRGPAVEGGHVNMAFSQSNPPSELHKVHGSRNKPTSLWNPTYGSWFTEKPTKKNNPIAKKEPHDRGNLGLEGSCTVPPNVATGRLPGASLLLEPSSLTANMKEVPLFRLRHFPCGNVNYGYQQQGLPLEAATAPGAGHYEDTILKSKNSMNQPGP

EGFR = target: T2, EGFR (Homo sapiens, UniProt P00533); assay: KINOMEscan scanEDGE; format: binding; settings: 20 uM
T2 construct: purchased Eurofins DiscoverX (KINOMEscan; SAFETYscan E/IC50 ELECT)

PRKCE = target: T3, PRKCE (Homo sapiens, UniProt Q02156); assay: KINOMEscan scanEDGE; format: binding; settings: 20 uM
T3 construct: purchased Eurofins DiscoverX (KINOMEscan; SAFETYscan E/IC50 ELECT)
T3 sequence (Q02156 whole entry): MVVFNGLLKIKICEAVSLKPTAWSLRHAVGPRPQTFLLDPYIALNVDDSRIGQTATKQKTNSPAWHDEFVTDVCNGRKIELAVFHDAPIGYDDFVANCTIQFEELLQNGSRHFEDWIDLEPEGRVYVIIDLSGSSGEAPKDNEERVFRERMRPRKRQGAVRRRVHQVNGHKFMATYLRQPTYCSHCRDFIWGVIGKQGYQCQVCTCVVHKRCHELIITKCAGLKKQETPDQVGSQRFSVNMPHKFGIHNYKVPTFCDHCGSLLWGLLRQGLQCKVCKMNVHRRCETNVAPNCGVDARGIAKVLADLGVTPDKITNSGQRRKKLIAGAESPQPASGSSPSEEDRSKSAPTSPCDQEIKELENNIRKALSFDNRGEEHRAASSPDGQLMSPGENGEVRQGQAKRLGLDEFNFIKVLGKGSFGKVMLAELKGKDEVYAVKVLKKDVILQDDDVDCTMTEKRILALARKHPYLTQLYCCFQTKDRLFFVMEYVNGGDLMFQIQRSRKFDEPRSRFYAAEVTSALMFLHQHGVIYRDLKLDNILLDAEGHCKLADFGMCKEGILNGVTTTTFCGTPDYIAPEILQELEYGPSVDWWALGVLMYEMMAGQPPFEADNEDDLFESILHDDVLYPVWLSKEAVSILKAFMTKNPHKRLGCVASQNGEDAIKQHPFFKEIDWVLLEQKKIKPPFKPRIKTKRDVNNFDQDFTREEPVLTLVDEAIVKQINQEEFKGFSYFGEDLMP

RET = target: T4, RET (Homo sapiens, UniProt P07949); assay: KINOMEscan scanEDGE; format: binding; settings: 20 uM
T4 construct: purchased Eurofins DiscoverX (KINOMEscan; SAFETYscan E/IC50 ELECT)

SRC = target: T5, SRC (Homo sapiens, UniProt P12931); assay: KINOMEscan scanEDGE; format: binding; settings: 20 uM
T5 construct: purchased Eurofins DiscoverX (KINOMEscan; SAFETYscan E/IC50 ELECT)

SRPK3 = target: T6, SRPK3 (Homo sapiens, UniProt Q9UPE1); assay: KINOMEscan scanEDGE; format: binding; settings: 20 uM
T6 construct: purchased Eurofins DiscoverX (KINOMEscan; SAFETYscan E/IC50 ELECT)

TGFBR1 = target: T7, TGFBR1 (Homo sapiens, UniProt P36897); assay: KINOMEscan scanEDGE; format: binding; settings: 20 uM
T7 construct: purchased Eurofins DiscoverX (KINOMEscan; SAFETYscan E/IC50 ELECT)

VEGFR2 = target: T8, VEGFR2 (Homo sapiens, UniProt P35968); assay: KINOMEscan scanEDGE; format: binding; settings: 20 uM
T8 construct: purchased Eurofins DiscoverX (KINOMEscan; SAFETYscan E/IC50 ELECT)
T8 sequence (P35968 20-1356): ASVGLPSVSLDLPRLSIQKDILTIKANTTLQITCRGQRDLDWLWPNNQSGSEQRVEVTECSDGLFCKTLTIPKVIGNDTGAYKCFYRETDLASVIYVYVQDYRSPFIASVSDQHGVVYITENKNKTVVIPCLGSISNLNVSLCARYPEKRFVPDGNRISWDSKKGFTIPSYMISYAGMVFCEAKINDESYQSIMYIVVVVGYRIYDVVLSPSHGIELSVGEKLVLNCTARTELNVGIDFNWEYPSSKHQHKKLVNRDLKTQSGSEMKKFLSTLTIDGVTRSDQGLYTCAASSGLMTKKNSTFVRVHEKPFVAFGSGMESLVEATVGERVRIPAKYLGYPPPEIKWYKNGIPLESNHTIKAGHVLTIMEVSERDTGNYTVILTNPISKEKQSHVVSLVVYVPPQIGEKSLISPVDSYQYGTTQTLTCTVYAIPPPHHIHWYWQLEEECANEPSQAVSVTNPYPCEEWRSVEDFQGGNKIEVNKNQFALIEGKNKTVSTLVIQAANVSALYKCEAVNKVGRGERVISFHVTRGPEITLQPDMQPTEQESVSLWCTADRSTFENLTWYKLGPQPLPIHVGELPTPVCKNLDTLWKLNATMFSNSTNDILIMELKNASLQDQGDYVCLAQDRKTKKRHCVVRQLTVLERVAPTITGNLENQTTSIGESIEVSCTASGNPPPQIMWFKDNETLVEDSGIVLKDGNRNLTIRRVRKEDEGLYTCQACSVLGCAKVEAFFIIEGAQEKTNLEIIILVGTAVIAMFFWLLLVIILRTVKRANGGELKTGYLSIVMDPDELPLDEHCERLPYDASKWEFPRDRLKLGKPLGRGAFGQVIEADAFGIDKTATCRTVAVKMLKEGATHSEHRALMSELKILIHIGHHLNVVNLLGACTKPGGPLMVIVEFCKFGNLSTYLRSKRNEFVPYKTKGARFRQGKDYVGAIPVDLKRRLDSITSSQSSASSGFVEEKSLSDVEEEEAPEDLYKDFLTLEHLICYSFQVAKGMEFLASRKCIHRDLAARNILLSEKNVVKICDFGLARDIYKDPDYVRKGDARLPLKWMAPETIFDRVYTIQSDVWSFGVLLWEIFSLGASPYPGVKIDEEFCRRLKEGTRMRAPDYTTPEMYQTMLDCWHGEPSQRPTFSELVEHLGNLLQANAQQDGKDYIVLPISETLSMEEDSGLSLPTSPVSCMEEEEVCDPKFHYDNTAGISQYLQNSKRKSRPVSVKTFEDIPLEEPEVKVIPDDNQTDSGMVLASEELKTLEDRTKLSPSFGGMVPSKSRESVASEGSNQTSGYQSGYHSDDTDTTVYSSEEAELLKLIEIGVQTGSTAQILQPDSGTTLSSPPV

AChE = target: T9, AChE (Homo sapiens, UniProt P22303); assay: SAFETYscan Enzymatic; format: biochemical; set-up: dose or concentration left out as unconfirmed; settings: read-out: Max Response (%) (Antagonist)
T9 construct: purchased Eurofins DiscoverX (KINOMEscan; SAFETYscan E/IC50 ELECT)
Experimental: (§1) The specificity of EDG-5506 for fast skeletal myosin over other, unrelated proteins was confirmed using two off-target binding and activity screens. […] A second off-target panel (SAFETYscan E/IC50 ELECT, Eurofins DiscoverX) tested in vitro enzyme activity against 78 proteins, including GPCR, ion channel, kinases, nuclear hormone receptors, and transporters. In all assays, the IC50 of EDG-5506 was more than 10 μM (Supplemental Data File 1).

COX1 = target: T10, COX1 (Homo sapiens, UniProt P23219); assay: SAFETYscan Enzymatic; format: biochemical; set-up: dose or concentration left out as unconfirmed; settings: read-out: Max Response (%) (Antagonist)
T10 construct: purchased Eurofins DiscoverX (KINOMEscan; SAFETYscan E/IC50 ELECT)
Experimental: as §1

COX2 = target: T11, COX2 (Homo sapiens, UniProt P35354); assay: SAFETYscan Enzymatic; format: biochemical; set-up: dose or concentration left out as unconfirmed; settings: read-out: Max Response (%) (Antagonist)
T11 construct: purchased Eurofins DiscoverX (KINOMEscan; SAFETYscan E/IC50 ELECT)
T11 sequence (P35354 18-604): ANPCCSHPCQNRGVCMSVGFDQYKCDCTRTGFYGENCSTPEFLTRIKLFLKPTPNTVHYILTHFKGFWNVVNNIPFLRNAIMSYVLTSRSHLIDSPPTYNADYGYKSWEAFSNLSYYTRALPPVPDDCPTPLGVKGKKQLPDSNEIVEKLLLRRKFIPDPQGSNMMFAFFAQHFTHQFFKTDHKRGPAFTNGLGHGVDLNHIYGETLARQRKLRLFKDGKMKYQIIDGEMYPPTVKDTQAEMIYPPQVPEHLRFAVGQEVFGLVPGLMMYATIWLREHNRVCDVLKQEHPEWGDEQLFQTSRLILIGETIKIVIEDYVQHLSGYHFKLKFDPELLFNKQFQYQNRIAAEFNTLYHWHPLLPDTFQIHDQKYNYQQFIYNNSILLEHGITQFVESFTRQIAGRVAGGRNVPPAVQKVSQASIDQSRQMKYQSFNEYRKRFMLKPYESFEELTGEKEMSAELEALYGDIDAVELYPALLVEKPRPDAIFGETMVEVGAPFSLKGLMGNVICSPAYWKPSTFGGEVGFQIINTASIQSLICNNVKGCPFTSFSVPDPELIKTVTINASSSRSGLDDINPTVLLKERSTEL
Experimental: as §1

MAOA = target: T12, MAOA (Homo sapiens, UniProt P21397); assay: SAFETYscan Enzymatic; format: biochemical; set-up: dose or concentration left out as unconfirmed; settings: read-out: Max Response (%) (Antagonist)
T12 construct: purchased Eurofins DiscoverX (KINOMEscan; SAFETYscan E/IC50 ELECT)
Experimental: as §1

PDE3A = target: T13, PDE3A (Homo sapiens, UniProt Q14432); assay: SAFETYscan Enzymatic; format: biochemical; set-up: dose or concentration left out as unconfirmed; settings: read-out: Max Response (%) (Antagonist)
T13 construct: purchased Eurofins DiscoverX (KINOMEscan; SAFETYscan E/IC50 ELECT)
Experimental: as §1

PDE4D2 = target: T14, PDE4D2 (Homo sapiens, UniProt Q08499); assay: SAFETYscan Enzymatic; format: biochemical; set-up: dose or concentration left out as unconfirmed; settings: read-out: Max Response (%) (Antagonist)
T14 construct: purchased Eurofins DiscoverX (KINOMEscan; SAFETYscan E/IC50 ELECT)
Experimental: as §1

DAT = target: T15, DAT (Homo sapiens, UniProt Q01959); assay: SAFETYscan Transporter; format: cell-based; set-up: dose or concentration left out as unconfirmed; settings: read-out: Max Response (%) (Antagonist)
T15 construct: purchased Eurofins DiscoverX (KINOMEscan; SAFETYscan E/IC50 ELECT)
T15 sequence (Q01959 whole entry): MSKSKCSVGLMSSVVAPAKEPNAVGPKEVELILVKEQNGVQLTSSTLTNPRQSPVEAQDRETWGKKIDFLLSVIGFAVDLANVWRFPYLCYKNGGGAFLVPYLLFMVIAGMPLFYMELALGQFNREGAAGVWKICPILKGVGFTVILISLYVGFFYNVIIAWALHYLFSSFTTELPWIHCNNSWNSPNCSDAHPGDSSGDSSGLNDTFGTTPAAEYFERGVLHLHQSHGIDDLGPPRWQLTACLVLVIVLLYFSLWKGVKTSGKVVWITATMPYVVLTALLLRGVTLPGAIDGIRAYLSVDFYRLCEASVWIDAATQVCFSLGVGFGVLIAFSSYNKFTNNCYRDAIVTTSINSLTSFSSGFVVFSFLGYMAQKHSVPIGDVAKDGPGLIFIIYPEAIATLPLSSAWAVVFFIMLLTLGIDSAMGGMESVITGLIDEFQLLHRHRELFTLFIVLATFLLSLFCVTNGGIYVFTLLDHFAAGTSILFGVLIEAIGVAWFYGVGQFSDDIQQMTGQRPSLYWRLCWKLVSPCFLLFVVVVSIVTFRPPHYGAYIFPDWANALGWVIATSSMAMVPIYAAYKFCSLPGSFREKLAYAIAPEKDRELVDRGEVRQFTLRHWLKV
Experimental: as §1

NET = target: T16, NET (Homo sapiens, UniProt P23975); assay: SAFETYscan Transporter; format: cell-based; set-up: dose or concentration left out as unconfirmed; settings: read-out: Max Response (%) (Antagonist)
T16 construct: purchased Eurofins DiscoverX (KINOMEscan; SAFETYscan E/IC50 ELECT)
Experimental: as §1

SERT = target: T17, SERT (Homo sapiens, UniProt P31645); assay: SAFETYscan Transporter; format: cell-based; set-up: dose or concentration left out as unconfirmed; settings: read-out: Max Response (%) (Antagonist)
T17 construct: purchased Eurofins DiscoverX (KINOMEscan; SAFETYscan E/IC50 ELECT)
Experimental: as §1

`O=c1ccc(-c2cnc(OCC(F)(F)F)nc2)nn1Cc1cncc(F)c1` [EDG-5506] was tested, and the IC50 (mouse TA myofibrils) was 400 nM, the “effect on force, slow skeletal fibers” value [1] was “no effect” and the “membrane-impermeable dye (procion orange) uptake” value (mdx EDL muscle) was “effectively reduced dye uptake”. For the same molecule, the “Evans blue dye-positive fibers” value (mdx mice) was “reduced blue fibers close to the level seen in WT mice”, the “binding, % of control” value (ALK) was 95 % of control and the “binding, % of control” value (EGFR) was 100 % of control. The “binding, % of control” value (PRKCE) was 81 % of control, the “binding, % of control” value (RET) was 52 % of control and the “binding, % of control” value (SRC) was 100 % of control. For the same molecule, the “binding, % of control” value (SRPK3) was 95 % of control, the “binding, % of control” value (TGFBR1) was 100 % of control and the “binding, % of control” value (VEGFR2) was 77 % of control. The Emax (AChE) was 16.4%, the Emax (COX1) was 4.78% and the Emax (COX2) was 3.26%. The Emax (MAOA) was 7.79%, the Emax (PDE3A) was 0.91% and the Emax (PDE4D2) was 7.16%. For the same molecule, the Emax (DAT) was 0%, the Emax (NET) was 4.79% and the Emax (SERT) was 6.08%.

Reference: publication PMC10178848, “Modulating fast skeletal muscle contraction protects skeletal muscle in animal models of Duchenne muscular dystrophy” (The Journal of Clinical Investigation, 2023)
